Measurements: US20040228948A1, “Increasing the concentration of conjugated linoleic acid isomers in the milk fat and/or tissue fat of ruminants” (priority 2003, published 2004)

Experiments:
dairy cows = conditions: 24 mg/kg of dietary dry matter, 28-day period; increase from 0.8%; cited from earlier work
lactating Holstein cows = assay: Example 2 feeding trial: milk fatty acid composition; type: in vivo; conditions: FIGS. 4 and 5, monensin with safflower oil
Description: Twenty-eight primiparous and 34 multiparous lactating Holstein cows were used in a randomized complete block design with repeated measures. Animals were blocked according to parity and DIM. Cows within each block were then randomly assigned to one of six treatment diets: (1) Control diet (CTL); (2) Control diet including safflower oil supplemented at 6% of DM (SAFF); (3) Control diet including safflower oil supplemented at 6% of DM plus Vitamin E supplemented at 150 IU/kg DM (SAFF/E); (4) Control diet including safflower oil supplemented at 6% of DM plus monensin supplemented at 24 ppm of DM (SAFF/M); (5) Control diet including safflower oil supplemented at 6% of DM plus Vitamin E supplemented at 150 IU/kg DM plus monensin supplemented at 24 ppm of DM (SAFF/M/E); (6) Control diet including flaxseed oil supplemented at 6% of DM plus Vitamin E supplemented at 150 IU/kg DM (FLAX/E). […] Feed intake was recorded daily and adjusted to maintain 5 to 10% orts. […] Milk yield was recorded daily. […] A portion of milk from each cow was preserved with potassium dichromate and analyzed for protein, fat, lactose, and somatic cell count at the Alberta Agriculture, Food and Rural Development Central Milk Testing Laboratory (Edmonton, Alberta, Canada). […] The data were analyzed as a randomized complete block design with repeated measures using MIXED procedure of SAS version 8:3 (SAS Institute, Cary, N.C.).

mouse DMBA model = conditions: synthetically prepared mixture of the CLA isomers; cited from earlier work
[1] = test system: DMBA-induced mammary tumors in rats; conditions: 0.05 g CLA/100 g of diet; cited from earlier work

Compound: CC[C@@]1([C@@H]2O[C@@H]([C@H]3O[C@@](O)(CO)[C@H](C)C[C@@H]3C)C[C@@H]2C)CC[C@H]([C@]2(C)CC[C@]3(C[C@H](O)[C@@H](C)[C@@H]([C@@H](C)[C@@H](OC)[C@H](C)C(=O)O)O3)O2)O1 [monensin]
- CLA in milk fat (dairy cows): 1.3 % of milk fat
- persistence of effect on CLA and trans 18:1 (lactating Holstein cows): consistent across the two-month period

Compound: Conjugated linoleic acid [CLA]
- papillomas compared to the control mice (mouse DMBA model): about one-half
- number of mammary tumors [1]: reduction
